Patent EP2631232B1, “Halogen derivatives of benzo[b]furans useful as anti-neoplastic or anti-proliferative drugs” (Centrum Badan Molekularnych I Makromolekularnych Pan, priority 2012, dated 2013)

What was measured:
[1] = system: HUVEC cells (normal human endothelial cells); experiment: MTT cytotoxicity test, normal HUVEC cells; assay type: cell-based; conditions: for toxicity to normal HUVEC cells (in words): 48 hours of incubation; for IC50: Homo sapiens, MTT, 48h incubation
Procedure: (§1) A number of halogen derivatives of benzo[b]furans were tested for cytotoxic properties against four cell lines. The tests were conducted by means of MTT where yellow tetrazole salt was processed by the dehydrogenases in mitochondria of live cells into violet formazan, in cell lines mentioned below: • HeLa cells (uterine cervix cancer); • HL60 cells (human acute myelogenous leukaemia); • K562 cells (human chronic myelogenous leukaemia), and • HUVEC cells (normal human endothelial cells). • 1. HeLa, K562, HL 60, and HUVEC cells, 7 thousand cells per well (in 200 µl of the medium) were disseminated on 96-well plates. Cells were incubated overnight in the incubator (37°C, 5% CO2). • 2. Test compounds were dissolved in DMSO; 2µL solution amounts were added to the cells. Final concentrations of the culture: 1mM, 10µM, 100nM, 1nM. Control: DMSO-containing cells, final concentration of which amounted to 1% in the culture. • 3. Cytotoxicity test (MTT) of test compounds after 48h incubation. After 48h incubation of HeLa, K562, HL60, or HUVEC cells with test compounds, 25 µl of MTT per well added (input concentration = 5mg/ml) to the mixture. MTT, yellow tetrazole salt was reduced to violet formazan by mitochondrial dehydrogenases of live cells; the volume of formazan was measured spectrophotometrically. After 2h incubation of cells with MTT in the incubator (37°C; 5% CO2), cells were lysed in lysing buffer containing SDS and DMF (95 µl/well). The lysis was conducted overnight at 37°C and with 5% CO2. • 4. MTT results were taken from FLUOstar Omega reader (wavelengths: 570 and 650 nm). Absorbance measured at 570 nm was proportional to the number of live cells. The plates were analysed by reading out the absorbance values at 570 nm and 650 nm wavelengths. The values of IC50 (concentration of compound producing a 50% cell mortality) was taken from the diagram by means of interpolation for a 50% cell survival rate.

[2] = system: caspase 3 and 7; experiment: Apo-ONE Homogeneous Caspase-3/7 Assay in K562 cells; assay type: cell-based, human
Procedure: The above mentioned toxicity of compound 1a was tested for its origin, i.e. induction of necrosis or apoptosis in the K562 cells of chronic myelogenous leukaemia. Accordingly: • K562 cells in RPMI 1640 medium containing a 10% calf foetal serum and antibiotics, were disseminated on a 96-well plate, in the amount of 20 x 10^3 cells per well. Cells were cultured for 24 hours in the incubator (5% CO2; 37°C). • Compound 1a was dissolved in DMSO and added to the cell medium; final concentration in the cell culture was 25 μM (5 x IC50). Negative control was established by means of cells cultured in the presence of DMSO at the concentration of 1%. Positive control was established by means of cells cultured in the presence of 1 μM staurosporin, a strong apoptosis inductor. The cells were incubated with the compounds for 18 hours in the incubator (5% CO2; 37°C). • The test to determine the activity of […] […] Due to proteolytic activity of caspases, the pro-fluorescent substrate was transformed into a fluorescent product the amount of which could be determined by means of fluorescence intensity measurement. • Fluorescence intensity in each well was measured on the plate by means of FLUOStar Omega (BMG-Labtech, Germany) plate reader, at the exciting light wavelength of 485 nm and emission of 520 nm. Fluorescence intensity was proportional to the activity of caspase 3 and 7 in the sample.

[3] = system: HL60 cells (human acute myelogenous leukaemia); experiment: MTT cytotoxicity test, HL60 cells; assay type: cell-based; conditions: for toxicity to HL60 cells (in words): 48 hours of incubation; for IC50: Homo sapiens, HL-60, MTT, 48h incubation
Procedure: as §1

[4] = system: K562 cells (human chronic myelogenous leukaemia); experiment: MTT cytotoxicity test, K562 cells; assay type: cell-based; conditions: for toxicity to K562 cells (in words): 48 hours of incubation; for IC50: Homo sapiens, MTT, 48h incubation
Procedure: as §1

[5] = system: HeLa cells (uterine cervix cancer); experiment: MTT cytotoxicity test, HeLa cells; assay type: cell-based; conditions: for toxicity to HeLa cells (in words): 48 hours of incubation; for IC50: Homo sapiens, MTT, 48h incubation
Procedure: as §1

[6] = system: K562 cells (human chronic myelogenous leukaemia); conditions: comparison value for cis-platinum; cited from earlier work

Row | Compound | toxicity to normal HUVEC cells (in words) [1] | IC50 [1] [µM] | activity of caspase 3 and 7 ([2]; 25 µM, 18 hours incubation, compared with reference cells (K562 and K562+DMSO), Fig. 1) | activity of caspases 3 and 7 ([2]; 1a concentration = 25 µM, incubation time = 24h) | toxicity to HL60 cells (in words) [3] | IC50 [3] [µM] | toxicity to K562 cells (in words) [4] | IC50 [4] [µM] | toxicity to HeLa cells (in words) [5] | IC50 [5] [µM] | IC50 value against K562 cells [6]
1 | COc1cc2c(CBr)c(C(C)=O)oc2c(C(C)=O)c1OC [Compound 1a, 1,1'-[3-(bromomethyl)-5,6-dimethoxy-1-benzofuran-2,7-diyl] diethanon] | not toxic | > 1000 | higher | increased | Strong toxicity | 0.1 | Strong toxicity | 5 | toxic to neither | > 1000 | 
2 | COC(=O)c1c(C)oc2cc(C(=O)C(Br)Br)c(O)c(Br)c12 [Compound 1b] | not toxic | > 1000 |  |  | toxic | 4 | toxic | 1 | toxic | 9 | 
3 | COC(=O)c1c(C)oc2cc(C(=O)C(Br)Br)c(OC)cc12 [Compound 1c] | not toxic | > 1000 |  |  | toxic | 4 | toxic | 1 | toxic | 1 | 
4 | COC(=O)c1c(C)oc2cc(C(=O)C(Cl)Cl)c(O)c(Cl)c12 [Compound 1e] | not toxic | > 1000 |  |  | specifically toxic | 3 | not toxic | > 1000 | specifically toxic | 10 | 
5 | N.N.[Cl][Pt][Cl] [cis-platinum] |  |  |  |  |  |  |  |  |  |  | several to several dozens
